Patent US20230373985A1 (Origenis Gmbh, priority 2020, published 2023)

What was measured:
[1] = molecular target: T1, wt human TYK2, catalytic site (Homo sapiens, UniProt P29597); assay: HTRF KinEASE assay, TYK2; type: biochemical; details: 1 μM ATP; read-out: IC50, Activity Toward TYK2
T1 construct: wt human TYK2, catalytic site; purchased SignalChem
T1 sequence (P29597 897-1176 limits assumed): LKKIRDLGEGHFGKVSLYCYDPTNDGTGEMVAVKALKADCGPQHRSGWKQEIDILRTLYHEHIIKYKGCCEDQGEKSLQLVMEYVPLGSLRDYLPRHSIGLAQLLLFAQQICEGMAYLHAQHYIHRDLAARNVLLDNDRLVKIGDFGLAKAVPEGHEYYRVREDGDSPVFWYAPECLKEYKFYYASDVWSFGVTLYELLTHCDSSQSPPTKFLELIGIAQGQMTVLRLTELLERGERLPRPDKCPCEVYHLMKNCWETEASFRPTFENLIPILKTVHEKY
In short: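 Kinase reaction run at room temperature for at least 30 min: 2 nM TYK2 with 1 μM ATP, or 1 nM JAK2 with 100 μM ATP, each with 1 μM biotin-TK substrate. Phosphorylation detected by HTRF (60 min antibody/XL665) and evaluated from emission ratios.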

[2] = molecular target: T2, wt human JAK1, catalytic site (Homo sapiens, UniProt P23458); assay: HTRF KinEASE assay, JAK1; type: biochemical; details: 2.5 μM ATP; read-out: IC50, Activity Toward JAK1
T2 construct: wt human JAK1, catalytic site; purchased ThermoFisher
In short: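 Compounds in DMSO dilution were mixed with kinase, biotin-TK substrate and ATP and reacted for ≥30 min at room temperature. Detection reagents (antibody, streptavidin-XL665) were read 60 min later as HTRF, with emission ratios analysed per KinEASE protocol.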

T2 sequence (P23458 875-1153 limits assumed): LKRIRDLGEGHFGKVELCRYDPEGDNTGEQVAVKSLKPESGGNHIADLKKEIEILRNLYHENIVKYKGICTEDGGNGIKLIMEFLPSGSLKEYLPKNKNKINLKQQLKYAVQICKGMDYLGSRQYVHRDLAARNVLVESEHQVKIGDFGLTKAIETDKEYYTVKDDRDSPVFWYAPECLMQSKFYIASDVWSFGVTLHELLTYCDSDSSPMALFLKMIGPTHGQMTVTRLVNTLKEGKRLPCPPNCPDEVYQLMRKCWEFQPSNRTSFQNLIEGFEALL

SMILES	IC50 [1] [nM]	IC50 [2] [nM]
CC1(C)CN(C(=O)c2ccc(Nc3cn(-c4c(Cl)cccc4Cl)nc3C(N)=O)cn2)C1 [compound 464, 1-(2,6-dichlorophenyl)-4-((6-(3,3-dimethylazetidine-1-carbonyl)pyridin-3-yl)amino)-1H-pyrazole-3-carboxamide]	10 to 100	100 to 1000
COc1ccc(Cn2cc(Nc3cn(-c4c(Cl)cccc4Cl)nc3C(N)=O)cn2)cc1 [compound 392, 1-(2,6-dichlorophenyl)-4-((1-(4-methoxybenzyl)-1H-pyrazol-4-yl)amino)-1H-pyrazole-3-carboxamide]	100 to 1000	100 to 1000
COc1cc(Cl)c(-n2nc(Nc3ccc(C(=O)N4CCSCC4)cc3)c(C(N)=O)n2)c(Cl)c1 [compound 176, 2-(2,6-dichloro-4-methoxyphenyl)-5-((4-(thiomorpholine-4-carbonyl)phenyl)amino)-2H-1,2,3-triazole-4-carboxamide]	100 to 1000	10 to 100
COCCn1cc(C(F)(F)F)nc1-c1ccc(Nc2nn(-c3c(Cl)cccc3Cl)nc2C(N)=O)cc1 [compound 118, 2-(2,6-dichlorophenyl)-5-((4-(1-(2-methoxyethyl)-4-(trifluoromethyl)-1H-imidazol-2-yl)phenyl)amino)-2H-1,2,3-triazole-4-carboxamide]	100 to 1000	10 to 100
Cc1nnnn1-c1ccc(Nc2cn(-c3c(Cl)cccc3Cl)nc2C(N)=O)nc1 [compound 435, 1-(2,6-dichlorophenyl)-4-((5-(5-methyl-1H-tetrazol-1-yl)pyridin-2-yl)amino)-1H-pyrazole-3-carboxamide]	10 to 100	10 to 100
CC1(C)CN(C(=O)c2ccc(Nc3nn(-c4c(Cl)cccc4Cl)nc3C(N)=O)cc2)C1 [compound 166, 2-(2,6-dichlorophenyl)-5-((4-(3,3-dimethylazetidine-1-carbonyl)phenyl)amino)-2H-1,2,3-triazole-4-carboxamide]	10 to 100	< 10
Cn1nnnc1-c1ccc(Nc2cn(-c3c(Cl)cccc3Cl)nc2C(N)=O)nc1 [compound 445, 1-(2,6-dichlorophenyl)-4-((5-(1-methyl-1H-tetrazol-5-yl)pyridin-2-yl)amino)-1H-pyrazole-3-carboxamide]	10 to 100	10 to 100
Cc1nnnn1-c1ccc(Nc2cn(-c3c(Cl)cccc3Cl)nc2C(N)=O)cc1 [compound 243, 1-(2,6-dichlorophenyl)-4-((4-(5-methyl-1H-tetrazol-1-yl)phenyl)amino)-1H-pyrazole-3-carboxamide]	< 10	10 to 100
NC(=O)c1nn(-c2c(Cl)cccc2Cl)nc1Nc1ccc(-c2nc(C(F)(F)F)cn2CCO)cc1 [compound 112, 2-(2,6-dichlorophenyl)-5-((4-(1-(2-hydroxyethyl)-4-(trifluoromethyl)-1H-imidazol-2-yl)phenyl)amino)-2H-1,2,3-triazole-4-carboxamide]	< 10	< 10
NC(=O)c1nn(-c2c(Cl)cccc2Cl)cc1Nc1ccc(C(=O)N2CC[C@@H](N3CCCC3)C2)nc1 [compound 356, (R)-4-((6-([1,3′-bipyrrolidine]-1′-carbonyl)pyridin-3-yl)amino)-1-(2,6-dichlorophenyl)-1H-pyrazole-3-carboxamide]	10 to 100	100 to 1000
NC(=O)c1nn(-c2c(Cl)cccc2Cl)cc1Nc1ccc(CN2CCS(=O)(=O)CC2)nc1 [compound 455, 1-(2,6-dichlorophenyl)-4-((6-((1,1-dioxidothiomorpholino)methyl)pyridin-3-yl)amino)-1H-pyrazole-3-carboxamide]	10 to 100	100 to 1000
NC(=O)c1nn(-c2c(Cl)cccc2Cl)nc1Nc1ccc(C(=O)N2CC(F)C2)cn1 [compound 135, 2-(2,6-dichlorophenyl)-5-((5-(3-fluoroazetidine-1-carbonyl)pyridin-2-yl)amino)-2H-1,2,3-triazole-4-carboxamide]	10 to 100	10 to 100
NC(=O)c1nn(-c2c(Cl)cccc2Cl)cc1Nc1ccc(-n2ncnc2CO)cc1 [compound 348, 1-(2,6-dichlorophenyl)-4-((4-(5-(hydroxymethyl)-1H-1,2,4-triazol-1-yl)phenyl)amino)-1H-pyrazole-3-carboxamide]	< 10	10 to 100
NC(=O)c1nn(-c2c(Cl)cccc2Cl)cc1Nc1ccc(CC(=O)N2CC(F)C2)nc1 [compound 441, 1-(2,6-dichlorophenyl)-4-((6-(2-(3-fluoroazetidin-1-yl)-2-oxoethyl)pyridin-3-yl)amino)-1H-pyrazole-3-carboxamide]	100 to 1000	100 to 1000
NC(=O)c1nn(-c2c(Cl)cccc2Cl)nc1Nc1ccc(-n2nncc2C(F)(F)F)cn1 [compound 157, 2-(2,6-dichlorophenyl)-5-((5-(5-(trifluoromethyl)-1H-1,2,3-triazol-1-yl)pyridin-2-yl)amino)-2H-1,2,3-triazole-4-carboxamide]	100 to 1000	10 to 100
NC(=O)c1nn(-c2c(Cl)cccc2Cl)cc1Nc1ccc(C(=O)N2CC[C@H](F)C2)cn1 [compound 367, (S)-1-(2,6-dichlorophenyl)-4-((5-(3-fluoropyrrolidine-1-carbonyl)pyridin-2-yl)amino)-1H-pyrazole-3-carboxamide]	10 to 100	100 to 1000
CCn1ncnc1-c1ccc(Nc2cn(-c3c(Cl)cccc3Cl)nc2C(N)=O)nc1 [compound 431, 1-(2,6-dichlorophenyl)-4-((5-(1-ethyl-1H-1,2,4-triazol-5-yl)pyridin-2-yl)amino)-1H-pyrazole-3-carboxamide]	100 to 1000	10 to 100
Cc1cncc2nnc(-c3ccc(Nc4nn(-c5c(Cl)cccc5Cl)nc4C(N)=O)cn3)n12 [compound 161, 2-(2,6-dichlorophenyl)-5-((6-(5-methyl-[1,2,4]triazolo[4,3-a]pyrazin-3-yl)pyridin-3-yl)amino)-2H-1,2,3-triazole-4-carboxamide]	10 to 100	10 to 100
CCc1nc(C(F)(F)F)nn1-c1ccc(Nc2cn(-c3c(Cl)cccc3Cl)nc2C(N)=O)cc1 [compound 277, 1-(2,6-dichlorophenyl)-4-((4-(5-ethyl-3-(trifluoromethyl)-1H-1,2,4-triazol-1-yl)phenyl)amino)-1H-pyrazole-3-carboxamide]	< 10	100 to 1000
N#Cc1cc(Cl)c(-n2nc(Nc3ccc(C(=O)N4CCC(F)C4)cc3)c(C(N)=O)n2)c(Cl)c1 (stereo in doubt) [compound 148, (R)-2-(2,6-dichloro-4-cyanophenyl)-5-((4-(3-fluoropyrrolidine-1-carbonyl)phenyl)amino)-2H-1,2,3-triazole-4-carboxamide]	10 to 100	100 to 1000
NC(=O)c1nn(-c2c(Cl)cccc2Cl)nc1Nc1ccc(CC(=O)N2CCOCC2)nc1 [compound 151, 2-(2,6-dichlorophenyl)-5-((6-(2-morpholino-2-oxoethyl)pyridin-3-yl)amino)-2H-1,2,3-triazole-4-carboxamide]	100 to 1000	10 to 100
Cc1ccn(-c2ccc(Nc3cn(-c4c(Cl)cccc4Cl)nc3C(N)=O)cc2)n1 [compound 75, 1-(2,6-dichlorophenyl)-4-((4-(3-methyl-1H-pyrazol-1-yl)phenyl)amino)-1H-pyrazole-3-carboxamide]	100 to 1000	100 to 1000
